# Measurements taken from US20130116241A1, “NOVEL INHIBITOR COMPOUNDS OF PHOSPHODIESTERASE TYPE 10A” (AbbVie Inc., priority 2011, published 2013).
# Structures can show the parent of a compound that is named as a salt.
# Target: human PDE10A (UniProt Q9Y233)
# Experiment: Measurement of PDE activity (recombinant enzyme, HTRF cAMP kit)
# Type: biochemical
# Settings: Table 1, substrate 20 nM for PDE10, 60 minutes at 29 C, read-out: IC50
# Protocol: The recombinant PDE proteins are used in in vitro enzymatic reaction for measurement of PDE activity. These recombinant proteins, including PDE10A (human, rat and mouse PDE10) and isoforms of PDEs 1, 3, 4, and 5, were purchased from commercial vendor BPS Bioscience. The enzymatic activity of PDEs was determined by cAMP measurement kit from CisBio (IBA) using HTRF technology.
# The PDE enzymatic reaction was carried out in assay buffer (20 mM Tris-HCl pH7.5, 10 mM MgCl2, 0.1% bovine serum albumin) containing enzyme and substrate. The PDE enzymes concentration ranged from 10 pM-250 pM, depending on each enzyme's specific activity. The substrate cyclic nucleotide (cAMP or cGMP) concentration used in the assay was 20 nM for PDE10, and 100 nM for other PDEs. The inhibitory effect of compound was determined by incubating various concentration of inhibitor in the enzymatic assay. Typically, compound was serial diluted in DMSO then further diluted in assay buffer. Next, the compound at varying concentration was mixed with PDE enzyme. The reaction was initiated by addition of cyclic nucleotide substrate, and incubated for 60 minutes at 29 C. The reaction was stopped by addition of lysis buffer from assay kit. The cAMP-d2 and anti-cAMP cryptate in the lysis buffer detected the level of cAMP left from the PDE hydrolysis reaction. The PDE activity is reversely correlated with the amount of cAMP left in the reaction and can be converted to the percent activity of an uninhibited control (100%). Thus, IC50 value of inhibitor can be obtained by plotting inhibitor concentration against PDE activity at that concentration.
# human PDE10A, sequence (Q9Y233 290-1055 limits assumed): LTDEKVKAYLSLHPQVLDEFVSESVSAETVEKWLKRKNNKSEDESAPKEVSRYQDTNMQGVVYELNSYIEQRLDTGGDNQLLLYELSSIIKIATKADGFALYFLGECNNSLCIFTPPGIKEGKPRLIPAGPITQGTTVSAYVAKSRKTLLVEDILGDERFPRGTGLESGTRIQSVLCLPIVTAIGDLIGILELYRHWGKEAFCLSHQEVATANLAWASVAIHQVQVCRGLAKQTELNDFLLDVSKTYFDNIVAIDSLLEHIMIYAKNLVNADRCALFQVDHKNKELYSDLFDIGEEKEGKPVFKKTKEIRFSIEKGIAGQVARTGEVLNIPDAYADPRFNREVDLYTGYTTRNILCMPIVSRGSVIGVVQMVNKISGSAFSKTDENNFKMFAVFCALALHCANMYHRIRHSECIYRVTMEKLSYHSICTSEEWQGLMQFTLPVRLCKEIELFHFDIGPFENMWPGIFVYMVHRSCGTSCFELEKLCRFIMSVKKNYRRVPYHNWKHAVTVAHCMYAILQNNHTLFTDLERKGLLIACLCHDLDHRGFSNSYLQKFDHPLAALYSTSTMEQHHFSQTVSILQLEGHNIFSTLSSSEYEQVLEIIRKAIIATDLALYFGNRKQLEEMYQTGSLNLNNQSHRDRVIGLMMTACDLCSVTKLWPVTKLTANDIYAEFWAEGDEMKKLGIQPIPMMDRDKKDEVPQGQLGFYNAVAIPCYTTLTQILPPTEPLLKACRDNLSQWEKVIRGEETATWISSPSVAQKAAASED
row,SMILES,IC50 [nM]
1,"O=c1c2cccc(N3CC4COCC4C3)c2cnn1CCc1cn2ccccc2n1 (stereo not shown) [Example 199, 2-[2-(Imidazo[1,2-a]pyridin-2-yl)ethyl]-5-(tetrahydro-1H-furo[3,4-c]pyrrol-5(3H)-yl)phthalazin-1(2H)-one hydrochloride]",< 100
2,"O=c1c2c(NC3COC3)cccc2ccn1[C@@H]1C[C@H]1c1ccc2ccccc2n1 (racemic) [Example 235, anti 8-(Oxetan-3-ylamino)-2-(2-(quinolin-2-yl)cyclopropyl)isoquinolin-1(2H)-one]",< 100
3,"Cn1cc(-c2cccc3cnn(CCc4ccc5ccccc5n4)c(=O)c23)cn1 [Example 139, 8-(1-Methyl-1H-pyrazol-4-yl)-2-[2-(quinolin-2-yl)ethyl]phthalazin-1(2H)-one]",< 100
4,"O=c1c2c(-c3ccncc3)cccc2ccn1/C=C/c1ncc2ccccc2n1 [compound 411, 8-(pyridin-4-yl)-2-[(E)-2-(quinazolin-2-yl)ethenyl]isoquinolin-1(2H)-one]",100 to 200
5,"O=c1c2c(N3CCC(F)(F)CC3)cccc2ccn1C1CC1c1ccc2ccccc2n1 (single isomer, unassigned) [Example 260, anti (−) 8-(4,4-difluoropiperidin-1-yl)-2-(2-(quinolin-2-yl)cyclopropyl)isoquinolin-1(2H)-one]",< 100
6,"O=c1c2c(-c3cccc(F)c3F)csc2cnn1CCc1ccc2ccccc2n1 [Example 70, 3-(2,3-difluorophenyl)-5-[2-(quinolin-2-yl)ethyl]thieno[2,3-d]pyridazin-4(5H)-one]",100 to 200
7,"O=c1c2c(-c3ccccc3F)cccc2cnn1CCc1ccc2ccccc2n1 [Example 111, 8-(2-Fluorophenyl)-2-[2-(quinolin-2-yl)ethyl]phthalazin-1(2H)-one]",< 100
8,"Cc1cc2ccccc2nc1/C=C/n1ccc2scc(-c3ccncc3)c2c1=O [compound 413, 5-[(E)-2-(3-methylquinolin-2-yl)ethenyl]-3-(pyridin-4-yl)thieno[3,2-c]pyridin-4(5H)-one]",< 100
9,"O=c1c2c(-c3cc(F)cc(F)c3)csc2cnn1CCc1ccc2ccccc2n1 [Example 80, 3-(3,5-difluorophenyl)-5-[2-(quinolin-2-yl)ethyl]thieno[2,3-d]pyridazin-4(5H)-one]",100 to 200
10,"O=c1c2c(C3CCNCC3)cccc2cnn1CCc1cn2c(n1)CCCC2 [compound 365, hydrochloride]",< 100
11,"O=c1c2c(N3CC4COCC4C3)cccc2cnn1CCc1cn2ccccc2n1 (stereo not shown) [Example 176, 2-[2-(Imidazo[1,2-a]pyridin-2-yl)ethyl]-8-(tetrahydro-1H-furo[3,4-c]pyrrol-5(3H)-yl)phthalazin-1(2H)-one hydrochloride]",< 100
12,"O=c1c2cccc(-c3cccnc3)c2cnn1CCc1ccc2ccccc2n1 [compound 402, 5-(pyridin-3-yl)-2-[2-(quinolin-2-yl)ethyl]phthalazin-1(2H)-one]",< 100
13,"O=c1c2c(-c3cccnc3)cccc2ccn1C1CC1c1ccc2ccccc2n1 (single isomer, unassigned; (+)) [Example 239a, (+) anti 8-(pyridin-3-yl)-2-(2-(quinolin-2-yl)cyclopropyl)isoquinolin-1(2H)-one]",100 to 200
14,"O=c1c2c(N3C[C@H]4CC[C@@H](C3)O4)cccc2ccn1C1CC1c1ccc2ccccc2n1 (stereo partly drawn) [Example 266, 8-((1R,5S)-8-oxa-3-azabicyclo[3.2.1]octan-3-yl)-2-(2-(quinolin-2-yl)cyclopropyl)isoquinolin-1(2H)-one]",< 100
15,"O=c1c2c(N3CCOCC3)cccc2ccn1C1CC1c1ccc2ccccc2n1 (single isomer, unassigned) [Example 246a, anti (+) 8-morpholino-2-(2-(quinolin-2-yl)cyclopropyl)isoquinolin-1(2H)-one]",< 100
16,"O=c1c2c(-c3cccc4[nH]ccc34)csc2cnn1CCc1ccc2ccccc2n1 [Example 45, 3-(1H-indol-4-yl)-5-(2-quinolin-2-yl-ethyl)-5H-thieno[2,3-d]pyridazin-4-one]",100 to 200

row,SMILES,IC50 [nM]
1,"O=c1c2c(-c3cccnc3)cccc2ccn1C1CC1c1ccc2ccccc2n1 (stereo not drawn) [Example 239, anti 8-(pyridin-3-yl)-2-(2-(quinolin-2-yl)cyclopropyl)isoquinolin-1(2H)-one hydrochloride]",< 100
2,"Cn1nccc1-c1cccc2c(=O)n(CCc3ccc4ccccc4n3)ncc12 [Example 194, 5-(1-Methyl-1H-pyrazol-5-yl)-2-[2-(quinolin-2-yl)ethyl]phthalazin-1(2H)-one]",< 100
3,"O=c1c2c(N3CC[C@@H](O)C3)cccc2ccn1C1CC1c1ccc2ccccc2n1 (stereo partly drawn) [Example 250, anti 8-((3R)-3-hydroxypyrrolidin-1-yl)-2-(2-(quinolin-2-yl)cyclopropyl)isoquinolin-1(2H)-one (2E)-but-2-enedioate]",100 to 200
4,O=c1c2c(-c3ccncc3)cccc2cnn1/C=C/c1ccc2ccccc2n1 [Example 225],< 100
5,"O=c1c2c(-c3ccccc3Cl)cccc2cnn1CCc1ccc2ccccc2n1 [Example 108, 8-(2-chlorophenyl)-2-[2-(quinolin-2-yl)ethyl]phthalazin-1(2H)-one]",200 to 500
6,O=c1c2c(N3CCC[C@@H](O)C3)cccc2cnn1CCc1cn2ccccc2n1 [compound 332],200 to 500
7,"O=c1c2cccc(-c3cccnc3)c2cnn1CCc1cn2ccccc2n1 [Example 196, 2-[2-(Imidazo[1,2-a]pyridin-2-yl)ethyl]-5-(pyridin-3-yl)phthalazin-1(2H)-one]",< 100
8,"COc1ccc(-c2cccc3cnn(CCc4ccc5ccccc5n4)c(=O)c23)cc1OC [Example 148, 8-(3,4-Dimethoxyphenyl)-2-[2-(quinolin-2-yl)ethyl]phthalazin-1(2H)-one]",100 to 200
9,"COc1ncccc1-c1cccc2cnn(CCc3ccc4ccccc4n3)c(=O)c12 [Example 125, 8-(2-Methoxypyridin-3-yl)-2-[2-(quinolin-2-yl)ethyl]phthalazin-1(2H)-one]",200 to 500
10,"O=c1c2c(N3CCC(O)CC3)cccc2cnn1CCc1cn2ccccc2n1 [compound 341, 8-(4-hydroxypiperidin-1-yl)-2-[2-(imidazo[1,2-a]pyridin-2-yl)ethyl]phthalazin-1(2H)-one]",< 100
11,"Cc1csc2c(-c3ccncc3)cn(CCc3ccc4ccccc4n3)c(=O)c12 [Example 216, 3-Methyl-7-(pyridin-4-yl)-5-(2-(quinolin-2-yl)ethyl)thieno[3,2-c]pyridin-4(5H)-one]",< 100
12,"COc1cc(F)cc(-c2cccc3cnn(CCc4ccc5ccccc5n4)c(=O)c23)c1 [Example 157, 8-(3-Fluoro-5-methoxyphenyl)-2-[2-(quinolin-2-yl)ethyl]phthalazin-1(2H)-one]",200 to 500
13,"CN(C)C(=O)c1cccc(-c2csc3cnn(CCc4ccc5ccccc5n4)c(=O)c23)c1 [Example 32, N,N-dimethyl-3-{4-oxo-5-[2-(quinolin-2-yl)ethyl]-4,5-dihydrothieno[2,3-d]pyridazin-3-yl}benzamide]",200 to 500
14,"Cc1ncc(-c2cccc3cnn(CCc4cn5ccccc5n4)c(=O)c23)cn1 [compound 342, 2-[2-(imidazo[1,2-a]pyridin-2-yl)ethyl]-8-(2-methylpyrimidin-5-yl)phthalazin-1(2H)-one]",100 to 200
15,"O=c1c2c(-c3ccncc3)cccc2ccn1C1CC1c1ccc2ccccc2n1 (racemic) [Example 222, anti (rac) 8-(Pyridin-4-yl)-2-(2-(quinolin-2-yl)cyclopropyl)isoquinolin-1(2H)-one]",< 100
